# Where a SMILES comes first, the peptide text is derived from it. Bridges are numbered along the chain shown (N, C = ends).
# Experiments:
# female Wistar rats = assay: partial restraint stress-induced hyperalgesia model; format: in vivo, rat; details: oral 0.3 and 3.0 μg/kg, distending pressure 15 mm Hg, p<0.0001, FIG. 7b
# Protocol: Five groups of female Wistar rats (weighing 200-250 g each), were surgically prepared for electromyography as described (Morteau et al. 1994 Dig Dis Sci 39:1239-48) and were used to evaluate the effects of SEQ ID NO:3 on colorectal sensitivity and compliance after a 2 hour partial restraint stress session. Partial restraint stress (PRS), a relatively mild stress, was induced as previously described (Morteau et al. 1994 Dig Dis Sci 39:1239-48). Female rats were lightly anesthetized with diethyl ether and their shoulders, upper forelimbs and thoracic trunk were wrapped in a confining harness of paper tape to restrict, but not prevent body movements. Control sham-stress animals were anesthetized but not wrapped. […] Electrical activity was recorded with an electroencephalograph (Mini VIII, Alvar, Paris, France) using a short time constant (0.03 sec.) to remove low-frequency signals (<3 Hz) and a paper speed of 3.6 cm/minute. […] Colonic pressure and balloon volume were continuously monitored on a potentiometric recorder (L6514, Linseis, Selb, Germany) with a paper speed of 1.0 cm/minute. The number of spike bursts, corresponding to abdominal contractions, was evaluated per 5-minute period. Colorectal volumes were determined as the maximal volume obtained for each stage of distension using the potentiometric recorder. […] The values were expressed as mean±SEM.
# carboxypeptidase A = biological target: T1, carboxypeptidase A (Homo sapiens, UniProt P15085); assay: in vitro proteolytic stability, carboxypeptidase A
# T1 sequence (P15085 111-419): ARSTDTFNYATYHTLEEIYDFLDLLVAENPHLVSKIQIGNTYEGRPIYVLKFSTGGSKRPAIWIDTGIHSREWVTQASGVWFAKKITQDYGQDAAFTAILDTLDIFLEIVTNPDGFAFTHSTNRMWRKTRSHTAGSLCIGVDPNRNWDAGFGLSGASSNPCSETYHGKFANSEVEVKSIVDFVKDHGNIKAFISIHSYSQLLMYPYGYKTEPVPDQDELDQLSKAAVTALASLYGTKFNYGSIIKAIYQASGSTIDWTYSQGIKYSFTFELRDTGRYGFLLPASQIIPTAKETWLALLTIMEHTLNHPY
# Protocol: The stability of SEQ ID NO:3 in the presence of several mammalian digestive enzymes was determined. SEQ ID NO:3 was exposed to a variety of in vitro conditions including digestive enzymes and low ph environments designed to simulate gastric fluid. SEQ ID NO:3 was incubated with chymotrypsin, trypsin, pepsin, aminopeptidase, carboxypeptidase A, and simulated gastric fluid (sgf) at ph 1.0. Samples were collected at 0, 3, and 24 h for all conditions except pepsin digestion and the SGF. For the latter two conditions, samples were obtained at 0, 1, and 3 h. Negative control samples were prepared for initial and final time points. A separate, positive activity control was run in parallel to SEQ ID NO:3. All samples were analyzed by LC/MS
# Five (5) μL of a 40 μg/mL carboxypeptidase inhibitor (carboxypeptidase inhibitor from potato tuber (Sigma-Aldrich, C0279) stock was added to each control sample (0 and 24 h), for a final concentration of 0.4 μg/mL. All control and test (0, 3 and 24 h) samples were incubated at 37° C. for 5 min. Twenty (20) μL of a 0.01 mg/mL carboxypeptidase A (Carboxypeptidase A from human pancreas; Sigma-Aldrich, C5358) stock was added to each sample. The samples were returned to the 37° C. water bath. The reaction was quenched with 5 μL of a 40 μg/mL carboxypeptidase inhibitor at the proper time point. No extra carboxypeptidase inhibitor was added to the control samples since there was already inhibitor present. Samples were subsequently flash frozen in liquid nitrogen, and stored at −80° C. until analysis. Upon analysis, samples were thawed and transferred to a 1 mL 96-well deep microtiter plate. […] These standards were used to generate a standard curve for quantification of samples. When necessary, the standard curves were also used to calculate the concentration of the corresponding digestion product. Ten (10) μL injections were made of each sample and standard.
# To further study the SEQ ID NO:3 carboxypeptidase A digestion product, samples of 0.01 mg/mL SEQ ID NO:3 were prepared in the carboxypeptidase A reaction buffer at a total volume of 500 μL in 2 mL eppendorf tubes. Triplicate samples were prepared for the following time points: 0, 15, 30, 60, 120, 180 and 240 min. The samples were incubated at 37° C. for 5 min. Twenty (20) μL of a 0.01 mg/mL carboxypeptidase A stock were added to each sample and returned to the 37° C. water bath. The reactions were quenched with 5 μL of a 40 μg/mL carboxypeptidase inhibitor at the proper time points. Samples were subsequently flash frozen in liquid nitrogen, and stored at −80° C. until analysis. Upon analysis, samples were thawed and transferred to a 1 mL 96-well plate. Standards of SEQ ID NO:3 were prepared in carboxypeptidase A reaction buffer at 0.625, 1.25, 2.50, 5.00, and 10.00 μg/mL concentrations. These standards were used to generate a standard curve for quantification of samples. When necessary, the standard curves were also used to calculate the concentration of the corresponding digestion product. Ten (10) μL injections were made of each sample and standard. If the formation of a digestion product was evident, then a spectral analysis was used to determine the mass of the digestion product, and predict its possible identity.
# [1] = biological target: intestinal epithelial cells from wild-type and GC-C KO mice (Mus musculus, UniProt Q3UWA6); details: 125I-SEQ ID NO:3 alone or with excess unlabeled SEQ ID NO:3, FIG. 9b
# Sequence of intestinal epithelial cells from wild-type and GC-C KO mice (Q3UWA6 20-1072): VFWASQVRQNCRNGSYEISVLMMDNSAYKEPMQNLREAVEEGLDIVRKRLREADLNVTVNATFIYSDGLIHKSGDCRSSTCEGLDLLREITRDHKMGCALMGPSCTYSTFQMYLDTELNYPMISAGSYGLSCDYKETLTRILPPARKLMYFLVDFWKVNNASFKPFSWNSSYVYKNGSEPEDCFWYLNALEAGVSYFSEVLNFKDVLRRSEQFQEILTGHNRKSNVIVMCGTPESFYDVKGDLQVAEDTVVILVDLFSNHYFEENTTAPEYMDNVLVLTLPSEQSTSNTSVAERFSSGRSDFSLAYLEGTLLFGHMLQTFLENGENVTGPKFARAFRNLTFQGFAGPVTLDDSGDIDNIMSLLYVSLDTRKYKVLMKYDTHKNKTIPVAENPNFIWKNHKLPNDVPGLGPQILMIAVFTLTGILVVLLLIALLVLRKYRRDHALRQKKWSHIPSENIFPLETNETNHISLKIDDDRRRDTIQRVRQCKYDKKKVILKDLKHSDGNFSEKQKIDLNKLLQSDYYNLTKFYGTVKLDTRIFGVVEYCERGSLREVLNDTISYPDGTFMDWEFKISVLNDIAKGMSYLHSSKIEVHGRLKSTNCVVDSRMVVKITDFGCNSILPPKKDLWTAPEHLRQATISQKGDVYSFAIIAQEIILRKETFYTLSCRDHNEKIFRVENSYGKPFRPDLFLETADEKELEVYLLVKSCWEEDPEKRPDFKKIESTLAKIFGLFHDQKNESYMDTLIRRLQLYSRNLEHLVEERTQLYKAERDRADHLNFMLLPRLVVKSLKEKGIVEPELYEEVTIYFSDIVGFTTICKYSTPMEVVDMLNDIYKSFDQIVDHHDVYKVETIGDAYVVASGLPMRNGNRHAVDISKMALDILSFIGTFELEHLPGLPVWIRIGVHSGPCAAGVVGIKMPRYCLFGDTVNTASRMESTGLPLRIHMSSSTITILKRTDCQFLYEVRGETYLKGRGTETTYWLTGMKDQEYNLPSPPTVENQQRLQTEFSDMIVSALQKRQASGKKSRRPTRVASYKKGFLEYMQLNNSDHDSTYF
# Protocol: Mouse intestinal epithelial cells were prepared identical to that above as for rat intestinal epithelial cells except the cells were homogenized with an Omni homogenizer for 20 seconds on the maximum setting to make a suspension of cells. A competition binding assay was performed identical to that described above between ^125I labeled SEQ ID NO:3 and unlabeled SEQ ID NO:3 (competitor).
structure (smiles),measurement,setting,value
"C[C@@H]1NC(=O)[C@@H]2CCCN2C(=O)[C@H](CC(N)=O)NC(=O)[C@@H]2CSSC[C@H](N)C(=O)N[C@H]3CSSC[C@H](NC1=O)C(=O)N[C@@H]([C@@H](C)O)C(=O)NCC(=O)N[C@H](C(=O)N[C@@H](Cc1ccc(O)cc1)C(=O)O)CSSC[C@H](NC(=O)[C@H](Cc1ccc(O)cc1)NC(=O)[C@H](CCC(=O)O)NC3=O)C(=O)N2 [SEQ ID NO:3] (H-CCEYCCNPACTGCY-OH; disulfide 1-6, 2-10, 5-13; N-terminus and C-terminus assumed)",response to CRD after partial restraint stress,female Wistar rats,reduced the response to CRD after PRS
same,proteolysis by carboxypeptidase A,"carboxypeptidase A; 37° C., FIG. 13a, 13b",some proteolysis
same,Cleavage of SEQ ID NO: 3 by proteolytic substance,"carboxypeptidase A; Carboxypetidase A, 37° C., up to 24 h",Yes
same,average calculated product concentrations,carboxypeptidase A; T3 h samples,1.3 (+/−0.06) μg/mL
same,average calculated product concentrations,carboxypeptidase A; T24 h samples,1.3 (+/−0.04) μg/mL
same,calculated concentrations of parent,carboxypeptidase A; all samples,8.4 (+/−1.2) μg/mL
same,average concentration,"carboxypeptidase A; carboxypeptidase A digestion of SEQ ID NO:3, T0",5115 (+/−121) nM
same,average concentration,"carboxypeptidase A; carboxypeptidase A digestion of SEQ ID NO:3, T240 (240 min)",4438 (+/−188) nM
same,calculated concentrations for the products,carboxypeptidase A; time 0 control (with inhibitor),0.8 (+/−0.02) μg/mL
same,calculated concentrations for the products,carboxypeptidase A; time 0 samples,0.8 (+/−0.01) μg/mL
same,"binding to intestinal epithelial cells, GC-C KO compared to wild-type mice",[1],reduction in SEQ ID NO:3 binding

# Source: patent US20090305993A1, “METHODS AND COMPOSITION FOR THE TREATMENT OF GASTROINTESTINAL DISORDERS” (IRONWOOD PHARMACEUTICALS, INC., priority 2006, published 2009)
